Results taken from patent US20230037862A1, “SYNTHETIC AGONISTS OF TLR4 RECEPTOR” (UNIVERSITÀ DEGLO STUDI DI MILANO - BICOCCA, priority 2017, published 2023).

Assays:
[1] = biological target: T1, purified human MD-2 receptor (Homo sapiens, UniProt Q9Y6Y9); assay: Anti-MD-2 antibody (9B4) competition, antibody-sandwich ELISA; type: binding
T1 sequence (Q9Y6Y9 19-160): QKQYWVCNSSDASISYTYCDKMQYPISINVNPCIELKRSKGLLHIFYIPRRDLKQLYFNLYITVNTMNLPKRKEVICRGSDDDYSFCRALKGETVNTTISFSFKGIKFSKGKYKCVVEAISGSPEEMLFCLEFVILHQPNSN
Procedure: The direct binding of molecules FP11 and FP111 to MD-2 was analyzed by using a monoclonal antibody binding MD-2, but not LPS-bound MD-2 (Viriyakosol, S., et al., Characterization of monoclonal antibodies to human soluble MD-2 protein. Hybridoma (Larchmt), 2006. 25(6): p. 349-57).
Anti-MD-2 monoclonal antibody (9B4) specifically binds an epitope near the MD-2 hydrophobic pocket, which is available for 9B4 antibody binding only when the MD-2 hydrophobic pocket is empty. Compound FP11 is accountable for a decrease of 9B4 antibody binding to MD-2 equal to 95% at a concentration of 20 μM (FIG. 3E).
The method of antibody-sandwich ELISA for the detection of the binding of compounds to MD-2 was modified from a previous study.
A microtiter plate was coated overnight at 4° C. with 100 μL/well of 5 μg/mL of chicken polyclonal anti-MD-2 antibodies, diluted in 50 mM Na2CO3 buffer, pH 9.6, and blocked with 1% BSA in PBS. After washing, 1 μM MD-2 with tested compounds was added and incubated for 2 h.
Mouse anti-MD-2 mAb (0.1 μg/mL 9B4) and goat antimouse IgG conjugated with HRP (0.1 μg/mL) in PBS were added, followed by detection at 420 nm after the addition of 100 μL of ABTS (Sigma).
Chicken anti-MD-2 polyclonal antibodies were prepared against recombinant MD-2 by GenTel (Madison, Wis., USA), monoclonal mouse anti-MD-9B4 antibodies were from eBioscience (San Diego, Calif., USA), and secondary goat antimouse IgG conjugated with horseradish peroxidase was from Santa Cruz Biotechnology (Santa Cruz, Calif., USA).

[2] = biological target: T1, purified human MD-2 receptor; assay: Surface plasmon resonance binding to MD-2
Procedure: Surface plasmon resonance (SPR) experiments enable the study of direct interactions between the molecules to be characterized and MD-2.
The binding affinity of the compounds to recombinant MD-2 was determined using a Biacore X100 with an NTA sensor chip (Biacore, GE Healthcare, Uppsala, Sweden). Briefly, 0.5 μM MD-2 (in 50 mM TRIS, 150 mM NaCl, 0.5% Tween 20, pH 7.5) was immobilized onto the sensor chip previously activated with 1 min pulse of 10 mM NiSO4. The first flow cell was used as a reference surface to control nonspecific binding.
Both flow cells were incubated with the analyte (in PBS, 5% DMSO, 5% EtOH, pH 7.5) at a flow rate of 10 μL/min at 25° C. at increasing concentrations. The data were analyzed with Biacore Evaluation software. KD values were calculated by global fitting of the equilibrium binding responses from various concentrations of analytes using a 1:1 Langmuir binding model.

## CCCCCCCCCCCCCC(=O)NC1C(OC(=O)CCCCCCCCCCCCC)[C@H](OC(=O)CCCCCCCCCCCCC)C(CO)O[C@H]1OP(=O)(O)O (stereo partly drawn) [FP11, 1-O-Phosphoryl-2-deoxy-4-O-tetradecanoyl 3-O-tetradecanoyl-2-tetradecanoylamino-α-D-glucopiranoside]
[1]; 20 μM
  decrease of 9B4 antibody binding to MD-2: 95%
[1]; up to 20 μM
  prevention of monoclonal antibody 9B4 binding to MD-2: prevents the binding of monoclonal antibody to MD-2 in a dose-dependent manner
[2]
  direct binding to MD-2 (SPR): directly binds the MD-2 hydrophobic pocket
[2]; SPR, 1:1 Langmuir binding model, 25° C.
  Kd: 6.5 µM
